# Measurements taken from US8541588B2, “Sulfonamide derivatives” (Pfizer Limited, priority 2009, dated 2013).
# Target: T1, Nav1.7 (or SCN9A) channel; HEK cells stably transfected with hSCN9A (Homo sapiens, UniProt Q15858)
# T1 construct: expressed in transfected cells
# Assay: Nav1.7 block, PatchXpress 7000 automated whole-cell voltage clamp, estimated IC50 (EIC50)
# Format: cell-based
# Conditions: PatchXpress platform; hSCN9A HEK cells held at V1/2 of inactivation; estimated IC50
# T1 sequence (Q15858 whole entry): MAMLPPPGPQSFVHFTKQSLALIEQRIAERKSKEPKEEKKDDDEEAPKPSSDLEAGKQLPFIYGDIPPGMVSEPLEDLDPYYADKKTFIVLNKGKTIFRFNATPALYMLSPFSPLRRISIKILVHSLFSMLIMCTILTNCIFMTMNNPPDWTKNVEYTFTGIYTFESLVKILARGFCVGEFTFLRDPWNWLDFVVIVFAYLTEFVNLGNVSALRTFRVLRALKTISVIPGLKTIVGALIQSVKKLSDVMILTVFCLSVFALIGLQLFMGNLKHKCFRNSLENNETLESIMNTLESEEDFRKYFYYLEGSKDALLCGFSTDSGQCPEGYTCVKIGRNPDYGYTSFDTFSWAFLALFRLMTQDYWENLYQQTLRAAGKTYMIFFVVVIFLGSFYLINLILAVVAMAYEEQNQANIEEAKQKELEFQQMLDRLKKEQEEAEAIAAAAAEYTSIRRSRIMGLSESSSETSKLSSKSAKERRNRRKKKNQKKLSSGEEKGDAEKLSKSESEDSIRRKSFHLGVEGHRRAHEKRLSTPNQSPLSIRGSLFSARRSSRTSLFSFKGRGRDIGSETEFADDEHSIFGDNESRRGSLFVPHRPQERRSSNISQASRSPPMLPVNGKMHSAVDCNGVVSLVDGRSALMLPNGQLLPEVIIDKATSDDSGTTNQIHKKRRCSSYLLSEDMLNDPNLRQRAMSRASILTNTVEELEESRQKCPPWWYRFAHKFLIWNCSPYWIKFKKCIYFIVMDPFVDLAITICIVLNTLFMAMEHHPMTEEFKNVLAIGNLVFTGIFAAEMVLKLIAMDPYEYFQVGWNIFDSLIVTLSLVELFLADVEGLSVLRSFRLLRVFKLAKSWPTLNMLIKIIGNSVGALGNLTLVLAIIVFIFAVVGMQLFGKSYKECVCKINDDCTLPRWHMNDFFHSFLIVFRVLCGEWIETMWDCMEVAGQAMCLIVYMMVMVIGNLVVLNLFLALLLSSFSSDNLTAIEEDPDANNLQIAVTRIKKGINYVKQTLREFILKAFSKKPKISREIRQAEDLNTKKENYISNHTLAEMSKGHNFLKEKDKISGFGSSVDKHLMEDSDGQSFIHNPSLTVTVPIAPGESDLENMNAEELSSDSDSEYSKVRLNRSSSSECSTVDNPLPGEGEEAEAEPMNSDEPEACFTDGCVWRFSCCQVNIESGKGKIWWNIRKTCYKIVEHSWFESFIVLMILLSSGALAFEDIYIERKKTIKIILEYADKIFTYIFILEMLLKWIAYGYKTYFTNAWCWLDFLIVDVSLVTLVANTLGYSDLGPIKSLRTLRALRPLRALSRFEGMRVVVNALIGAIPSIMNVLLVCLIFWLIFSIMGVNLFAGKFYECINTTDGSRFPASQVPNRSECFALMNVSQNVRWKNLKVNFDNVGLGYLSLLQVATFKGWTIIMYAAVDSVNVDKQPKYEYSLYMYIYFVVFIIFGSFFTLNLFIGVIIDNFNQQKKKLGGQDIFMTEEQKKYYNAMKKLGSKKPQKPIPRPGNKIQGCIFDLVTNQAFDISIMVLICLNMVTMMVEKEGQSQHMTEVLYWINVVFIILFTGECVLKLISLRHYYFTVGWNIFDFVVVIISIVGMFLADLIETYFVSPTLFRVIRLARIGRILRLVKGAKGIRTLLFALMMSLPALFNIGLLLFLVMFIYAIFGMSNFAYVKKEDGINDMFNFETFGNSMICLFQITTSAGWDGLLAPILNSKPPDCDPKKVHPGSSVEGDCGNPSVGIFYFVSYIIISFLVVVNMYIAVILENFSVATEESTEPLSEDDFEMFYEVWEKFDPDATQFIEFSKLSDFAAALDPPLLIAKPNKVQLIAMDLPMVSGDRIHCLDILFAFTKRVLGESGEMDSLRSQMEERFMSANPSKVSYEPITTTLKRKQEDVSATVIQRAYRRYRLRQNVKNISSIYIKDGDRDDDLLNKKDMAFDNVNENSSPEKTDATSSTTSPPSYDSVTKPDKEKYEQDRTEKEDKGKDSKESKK
row,IC50 [nM],Structure (SMILES)
1,5930,"Cc1cccc(-c2ccc(F)c(F)c2)c1Oc1ccc(S(=O)(=O)Nc2ncns2)cc1C#N [Example 44, 3-cyano-4-[(3′,4′-difluoro-3-methylbiphenyl-2-yl)oxy]-N-1,2,4-thiadiazol-5-ylbenzenesulfonamide]"
2,30440,"Cc1cccc(-c2cc(F)cc(F)c2)c1Oc1ccc(S(=O)(=O)Nc2ncns2)cc1C#N [Example 45, 3-cyano-4-[(3′,5′-difluoro-3-methylbiphenyl-2-yl)oxy]-N-1,2,4-thiadiazol-5-ylbenzenesulfonamide]"
3,210,"N#Cc1cc(S(=O)(=O)Nc2ncns2)ccc1Oc1ccc(F)cc1-c1ccc(F)cc1F [Example 46, 3-cyano-N-1,2,4-thiadiazol-5-yl-4-[(2′,4′,5-trifluorobiphenyl-2-yl)oxy]benzenesulfonamide]"
4,900,"COc1ccc(-c2ccccc2Oc2ccc(S(=O)(=O)Nc3ncns3)cc2C#N)cc1F [Example 48, 3-cyano-4-[(3′-fluoro-4′-methoxybiphenyl-2-yl)oxy]-N-1,2,4-thiadiazol-5-ylbenzenesulfonamide]"
5,160,"N#Cc1cc(S(=O)(=O)Nc2ncns2)ccc1Oc1ccccc1-c1ccc(F)cc1 [Example 49, 3-cyano-4-[(4′-fluorobiphenyl-2-yl)oxy]-N-1,2,4-thiadiazol-5-ylbenzenesulfonamide]"
6,840,"N#Cc1cc(S(=O)(=O)Nc2ncns2)ccc1Oc1ccccc1-c1ccccc1F [Example 50, 3-cyano-4-[(2′-fluorobiphenyl-2-yl)oxy]-N-1,2,4-thiadiazol-5-ylbenzenesulfonamide]"
7,330,"COc1ccc(-c2ccccc2Oc2ccc(S(=O)(=O)Nc3ncns3)cc2C#N)cc1 [Example 51, 3-cyano-4-[(4′-methoxybiphenyl-2-yl)oxy]-N-1,2,4-thiadiazol-5-ylbenzenesulfonamide]"
8,360,"N#Cc1cc(S(=O)(=O)Nc2ncns2)ccc1Oc1ccccc1-c1ccc(F)c(F)c1 [Example 52, 3-cyano-4-[(3′,4′-difluorobiphenyl-2-yl)oxy]-N-1,2,4-thiadiazol-5-ylbenzenesulfonamide]"
9,3540,"N#Cc1cc(S(=O)(=O)Nc2ncns2)ccc1Oc1ccccc1-c1cc(F)cc(F)c1 [Example 53, 3-cyano-4-[(3′,5′-difluorobiphenyl-2-yl)oxy]-N-1,2,4-thiadiazol-5-ylbenzenesulfonamide]"
10,260,"CC(C)Oc1ccc(-c2ccccc2Oc2ccc(S(=O)(=O)Nc3ncns3)cc2C#N)cc1 [Example 54, 3-cyano-4-[(4′-isopropoxybiphenyl-2-yl)oxy]-N-1,2,4-thiadiazol-5-ylbenzenesulfonamide]"
11,920,"N#Cc1cc(S(=O)(=O)Nc2ncns2)ccc1Oc1ccccc1-c1cccc(OC(F)(F)F)c1 [Example 55, 3-cyano-N-1,2,4-thiadiazol-5-yl-4-{[3′-(trifluoromethoxy)biphenyl-2-yl]oxy}benzenesulfonamide]"
12,380,"N#Cc1cc(S(=O)(=O)Nc2ncns2)ccc1Oc1ccccc1-c1ccc(F)cc1F [Example 56, 3-cyano-4-[(2′,4′-difluorobiphenyl-2-yl)oxy]-N-1,2,4-thiadiazol-5-ylbenzenesulfonamide]"
13,660,"N#Cc1cc(S(=O)(=O)Nc2ncns2)ccc1Oc1ccccc1-c1ccc(OC(F)(F)F)cc1 [Example 57, 3-cyano-N-1,2,4-thiadiazol-5-yl-4-{[4′-(trifluoromethoxy)biphenyl-2-yl]oxy}benzenesulfonamide]"
14,340,"N#Cc1cc(S(=O)(=O)Nc2ncns2)ccc1Oc1cc(C(F)(F)F)nn1-c1ccc(F)cc1F [Example 58, 3-cyano-4-{[1-(2,4-difluorophenyl)-3-(trifluoromethyl)-1H-pyrazol-5-yl]oxy}-N-1,2,4-thiadiazol-5-ylbenzenesulfonamide]"
15,2280,"N#Cc1cc(S(=O)(=O)Nc2ncns2)ccc1Oc1cc(C(F)(F)F)nn1-c1ccc(F)c(F)c1 [Example 59, 3-cyano-4-{[1-(3,4-difluorophenyl)-3-(trifluoromethyl)-1H-pyrazol-5-yl]oxy}-N-1,2,4-thiadiazol-5-ylbenzenesulfonamide]"
